The subject of this experiment is Aβ42 production. As to the kind of experiment: Quantification of Aβ peptide in culture of neurons from rat fetus brain (Aβ ELISA). It counts as cell-based. The settings on record: Neuron, 72 h; rat primary neuronal culture (cerebral cortex, embryonic day 18 Wistar rats); medium collected three days after addition of the compound; Aβx-42 ELISA; read-out: Aβ42 production reducing effect IC50. The protocol: Quantification of Aβ Peptide in Culture of Neurons from Rat Fetus Brain
(1) Rat Primary Neuronal Culture
Primary neuronal cultures were prepared from the cerebral cortex of embryonic day 18 Wistar rats (Charles River Japan, Yokohama, Japan). Specifically, the embryos were aseptically removed from pregnant rats under ether anesthesia. The brain was isolated from the embryo and immersed in an ice-cold L-15 medium (such as Invitrogen Corp. Cat #11415-064, Carlsbad, Calif., USA, or SIGMA L1518). The cerebral cortex was collected from the isolated brain under a stereoscopic microscope. The cerebral cortex fragments collected were enzymatically treated in an enzyme solution containing 0.25% trypsin (Invitrogen Corp. Cat #15050-065, Carlsbad, Calif., USA) and 0.01% DNase (Sigma D5025, St. Louis, Mo., USA) at 37° C. for 30 minutes to disperse the cells. Here, the enzymatic reaction was stopped by adding inactivated horse serum to the solution. The enzymatically treated solution was centrifuged at 1,500 rpm for five minutes to remove the supernatant. 5 to 10 mL of a medium was added to the resulting cell mass. Neurobasal medium (Invitrogen Corp. Cat #21103-049, Carlsbad, Calif., USA) supplemented with 2% B27 supplement (Invitrogen Corp. Cat #17504-044, Carlsbad, Calif., USA), 25 μM 2-mercaptoethanol (2-ME, WAKO Cat #139-06861, Osaka, Japan), 0.5 mM L-glutamine (Invitrogen Corp. Cat #25030-081, Carlsbad, Calif., USA), and Antibiotics-Antimycotics (Invitrogen Corp. Cat #15240-062, Carlsbad, Calif., USA) was used as the medium (Neurobasal/B27/2-ME). However, the above Neurobasal medium not supplemented with 2-ME (Neurobasal/B27) was used for the assay. The cells were redispersed by mild pipetting of the cell mass to which the medium was added. The cell dispersion was filtered through a 40-μm nylon mesh (Cell Strainer, Cat #35-2340, Becton Dickinson Labware, Franklin Lakes, N.J., USA) to remove the remaining cell mass, and thus a neuronal cell suspension was obtained. The neuronal cell suspension was diluted with the medium and then plated in a volume of 100 μL/well at an initial cell density of 5×10^5 cells/cm^2 in a 96-well polystyrene culture plate pre-coated with poly-L or D-lysine (Falcon Cat #35-3075, Becton Dickinson Labware, Franklin Lakes, N.J., USA coated with poly-L-lysine using the method shown below, or BIOCOAT™ cell environments Poly-D-lysine cell ware 96-well plate, Cat #35-6461, Becton Dickinson Labware, Franklin Lakes, N.J., USA). Poly-L-lysine coating was carried out as follows. 100 μg/mL of a poly-L-lysine (SIGMA P2636, St. Louis, Mo., USA) solution was aseptically prepared with a 0.15 M borate buffer (pH 8.5). […] of the solution was added to the 96-well polystyrene culture plate and incubated at room temperature for one or more hours or at 4° C. overnight or longer. Thereafter, the coated 96-well polystyrene culture plate was washed with sterile water four or more times, and then dried or rinsed with, for example, sterile PBS or medium, and used for cell plating. The plated cells were cultured in the culture plate at 37° C. in 5% CO2-95% air for one day. Then, the total amount of the medium was replaced with a fresh Neurobasal™/B27/2-ME medium, and then the cells were cultured for further three days.
The drug was added to the culture plate on Day 4 of culture as follows. The total amount of the medium was removed from the wells, and 180 μL/well of Neurobasal medium not containing 2-ME and containing 2% B-27 (Neurobasal/B27) was added thereto. A solution of the test compound in dimethyl sulfoxide (hereinafter abbreviated as DMSO) was diluted with Neurobasal/B27 to a concentration 10-fold higher than the final concentration. 20 μL/well of the dilution was added to and sufficiently mixed with the medium. The final DMSO concentration was 1% or less. Only DMSO was added to the control group.
The cells were cultured for three days after addition of the compound, and the total amount of the medium was collected. […]

Data on 21 compounds can be found in patent US20100317850A1 (priority 2008, published 2010).

By IC50 is commonly meant the concentration needed to halve the response being measured. Turning to `NC1=N[C@@]2(c3cc(NC(=O)c4cnc(C(F)F)cn4)ccc3F)C[C@H](CF)OC[C@H]2CS1` [Example 43, N-[3-((4aS,7R,8aS)-2-amino-7-fluoromethyl-4a,5,7,8-tetrahydro-4H-6-oxa-3-thia-1-azanaphthalen-8a-yl)-4-fluorophenyl]-5-difluoromethylpyrazine-2-carboxamide], the IC50 was determined as 0.019 µM.
For the compound `NC1=N[C@@]2(c3cc(NC(=O)c4ccc(C(F)F)cn4)ccc3F)CCC[C@H]2CS1` (single isomer, unassigned) [Example 141, N-[3-((4aR*,7aS*)-2-amino-4a,5,6,7-tetrahydro-4H-cyclopenta[d][1,3]thiazin-7a-yl)-4-fluorophenyl]-5-difluoromethylpyridine-2-carboxamide], the half-maximal inhibitory concentration (IC50) is 0.016 µM.
Regarding `NC1=N[C@@]2(c3cc(NC(=O)c4cnc(OCF)cn4)ccc3F)CCC[C@H]2CS1` (relative stereo) [Example 21, N-[3-((4aR*,7aS*)-2-amino-4a,5,6,7-tetrahydro-4H-cyclopenta[d][1,3]thiazin-7a-yl)-4-fluorophenyl]-5-fluoromethoxypyrazine-2-carboxamide], the IC50 was 0.013 µM.
Take `NC1=N[C@@]2(c3cc(-c4cccnc4F)ccc3F)CCC[C@H]2CS1` (racemic) [Example 160, (±)-(4aR*,7aS*)-7a-[2-fluoro-5-(2-fluoropyridin-3-yl)phenyl]-4,4a,5,6,7,7a-hexahydrocyclopenta[d][1,3]thiazin-2-ylamine]: the half-inhibitory concentration (IC50) was determined as 0.521 µM.
The figure for `NC1=N[C@@]2(c3cc(NC(=O)c4ncc(F)cc4F)ccc3F)CCC[C@H]2CS1` (single isomer, unassigned) [Example 168, N-[3-((4aR*,7aS*)-2-amino-4a,5,6,7-tetrahydro-4H-cyclopenta[d][1,3]thiazin-7a-yl)-4-fluorophenyl]-3,5-difluoropyridine-2-carboxamide] is 0.016 µM; for `NC1=N[C@@]2(c3cc(NC(=O)c4ccc(F)cn4)ccc3F)CCCC[C@H]2CS1` (single isomer, unassigned) [Example 256, N-[3-((4aR*,8aS*)-2-amino-4,4a,5,6,7,8-hexahydrobenzo[d][1,3]thiazin-8a-yl)-4-fluorophenyl]-5-fluoropyridine-2-carboxamide] it is 0.038 µM.
The figure for `C[C@H]1OC[C@]2(c3cc(NC(=O)c4cnc(C(F)F)cn4)ccc3F)N=C(N)SC[C@H]12` (relative stereo) [Example 58, N-[3-((4aS*,5R*,7aS*)-2-amino-5-methyl-4a,5-dihydro-4H-furo[3,4-d][1,3]thiazin-7a-yl)-4-fluorophenyl]-5-difluoromethylpyrazine-2-carboxamide] is 0.007 µM.
As for `NC1=N[C@@]2(c3cc(NC(=O)c4ncc(F)cc4F)ccc3F)CCCC[C@H]2CS1` (single isomer, unassigned) [Example 105, N-[3-((4aR*,8aS*)-2-amino-4,4a,5,6,7,8-hexahydrobenzo[d][1,3]thiazin-8a-yl)-4-fluorophenyl]-3,5-difluoropyridine-2-carboxamide], the IC50 is 0.121 µM.
With `COc1cnc(C(=O)Nc2ccc(F)c([C@]34CCCC[C@H]3CSC(N)=N4)c2)cn1` (single isomer, unassigned) [Example 107, N-[3-((4aR*,8aS*)-2-amino-4,4a,5,6,7,8-hexahydrobenzo[d][1,3]thiazin-8a-yl)-4-fluorophenyl]-5-methoxypyrazine-2-carboxamide], the concentration for half-maximal inhibition (IC50) worked out at 0.017 µM.
As for `NC1=N[C@@]2(c3cc(NC(=O)c4ccc(OCF)cn4)ccc3F)CCC[C@H]2CS1` (relative stereo) [Example 23, N-[3-((4aR*,7aS*)-2-amino-4a,5,6,7-tetrahydro-4H-cyclopenta[d][1,3]thiazin-7a-yl)-4-fluorophenyl]-5-fluoromethoxypyridine-2-carboxamide], the concentration for half-maximal inhibition (IC50) is 0.01 µM.
As to `CO[C@@H]1C[C@H]2CSC(N)=N[C@@]2(c2cc(NC(=O)c3cnc(OC(F)F)cn3)ccc2F)C1` (relative stereo) [Example 95], the concentration for half-maximal inhibition (IC50) amounted to 0.001 µM.
Take `NC1=N[C@@]2(c3cc(NC(=O)c4ccc(OCC(F)(F)F)cn4)ccc3F)CCC[C@H]2CS1` (single isomer, unassigned) [Example 179, N-[3-((4aR*,7aS*)-2-amino-4a,5,6,7-tetrahydro-4H-cyclopenta[d][1,3]thiazin-7a-yl)-4-fluorophenyl]-5-(2,2,2-trifluoroethoxy)-pyridine-2-carboxamide]: the 50% inhibitory concentration (IC50) came to 0.098 µM.
For the compound `N#Cc1ccc(C(=O)Nc2ccc(F)c([C@]34COC[C@H]3CSC(N)=N4)c2)nc1` (relative stereo) [Example 24, N-[3-((4aS*,7aS*)-2-amino-4a,5-dihydro-4H-furo[3,4-d][1,3]thiazin-7a-yl)-4-fluorophenyl]-5-cyanopyridine-2-carboxamide], the IC50 was determined as 0.0043 µM.
In the case of `COC[C@H]1OC[C@]2(c3cc(NC(=O)c4cnc(OCF)cn4)ccc3F)N=C(N)SC[C@H]12` [Example 69, N-[3-((4aS,5S,7aS)-2-amino-5-methoxymethyl-4a,5-dihydro-4H-furo[3,4-d][1,3]thiazin-7a-yl)-4-fluorophenyl]-5-fluoromethoxypyrazine-2-carboxamide], the IC50 was 0.002 µM.
For `NC1=N[C@@]2(c3cc(NC(=O)c4ccc(Cl)cn4)ccc3OC(F)(F)F)CCOC[C@H]2CS1` (racemic) [Example 149], the IC50 was determined as 0.414 µM.
Regarding `N#Cc1ccc(C(=O)Nc2ccc(F)c([C@]34CC[C@H](F)C[C@H]3CSC(N)=N4)c2)nc1` (relative stereo) [Example 215, N-[3-((4aR*,6S*,8aS*)-2-amino-6-fluoro-4,4a,5,5,6,7,8-hexahydrobenzo[d][1,3]thiazin-8a-yl)-4-fluorophenyl]-5-cyanopyridine-2-carboxamide], the half-maximal inhibitory concentration (IC50) worked out at 0.01 µM.
Consider `NC1=N[C@@]2(c3cc(NC(=O)c4ccc(C(F)(F)F)cn4)ccc3F)CCCCC[C@H]2CS1` (single isomer, unassigned) [Example 250, N-[3-((4aR*,9aS*)-2-amino-4a,5,6,7,8,9-hexahydro-4H-cyclohepta[d][1,3]thiazin-9a-yl)-4-fluorophenyl]-5-trifluoromethylpyridine-2-carboxamide], for which the IC50 was found to be 0.027 µM.
For the compound `CC[C@H]1OC[C@]2(c3cc(NC(=O)c4ccc(C#N)cn4)ccc3F)N=C(N)SC[C@H]12` (relative stereo) [Example 49, N-[3-((4aS*,5R*,7aS*)-2-amino-5-ethyl-4a,5-dihydro-4H-furo[3,4-d][1,3]thiazin-7a-yl)-4-fluorophenyl]-5-cyanopyridine-2-carboxamide], the IC50 was 0.0008 µM.
Regarding `NC1=N[C@@]2(c3cc(NC(=O)c4ncccc4C(F)(F)F)ccc3F)CCCCC[C@H]2CS1` [Example 252], the IC50 turned out to be 0.187 µM.
Turning to `NC1=N[C@@]2(c3cc(NC(=O)c4ccc(OC(F)F)cn4)ccc3F)CO[C@H](CF)[C@H]2CS1` [Example 72, N-[3-((4aS,5,7aS)-2-amino-5-fluoromethyl-4a,5-dihydro-4H-furo[3,4-d][1,3]thiazin-7a-yl)-4-fluorophenyl]-5-difluoromethoxypyridine-2-carboxamide], the IC50 amounted to 0.002 µM.
In the case of `CCO[C@H]1C[C@H]2CSC(N)=N[C@@]2(c2cc(NC(=O)c3ccc(C#N)cn3)ccc2F)C1` (relative stereo) [Example 89, (+)-N-[3-((4aR*,6S*,7aS*)-2-amino-6-ethoxy-4a,5,6,7-tetrahydro-4H-cyclopenta[d][1,3]thiazin-7a-yl)-4-fluorophenyl]-5-cyanopyridine-2-carboxamide], the IC50 was found to be 0.0032 µM.
